Laboratory results reported in PubChem BioAssay (NCI).
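Protocol summary: plate cells (96-well), add compound at 5 concentrations, incubate 48 h, interpolate endpoints linearly. GI50 = concentration required for 50% inhibition of growth. TGI: total growth inhibition.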

What was measured:
Assay in all cases: NCI tumour cell line growth inhibition, 48 h
[1] = test system: MDA-MB-468 breast
[2] = test system: K-562 leukemia
[3] = test system: CCRF-CEM leukemia
[4] = test system: NCI-H522 lung
[5] = test system: NCI-H226 lung
[6] = test system: HCC-2998 colon
[7] = test system: KM12 colon
[8] = test system: SK-OV-3 ovarian
[9] = test system: OVCAR-8 ovarian
[10] = test system: SK-MEL-28 melanoma
[11] = test system: IGROV1 ovarian
[12] = test system: COLO 205 colon
[13] = test system: LOX IMVI melanoma
[14] = test system: SK-MEL-5 melanoma
[15] = test system: MOLT-4 leukemia
[16] = test system: HCT-15 colon
[17] = test system: HOP-62 NSCLC
[18] = test system: SR leukemia
[19] = test system: HCT-116 colon
[20] = test system: OVCAR-5 ovarian
[21] = test system: OVCAR-3 ovarian
[22] = test system: TK-10 renal
[23] = test system: MDA-MB-231 breast
[24] = test system: HL-60(TB) leukemia
[25] = test system: MCF7 breast
[26] = test system: U251 CNS
[27] = test system: RXF 393 renal
[28] = test system: HOP-92 NSCLC
[29] = test system: UACC-257 melanoma
[30] = test system: UO-31 renal
[31] = test system: OVCAR-4 ovarian
[32] = test system: SN12C renal
[33] = test system: A498 renal
[34] = test system: DU-145 prostate
[35] = test system: SNB-75 CNS
[36] = test system: NCI-H23 lung
[37] = test system: NCI-H460 lung
[38] = test system: SF-268 CNS
[39] = test system: BT-549 breast
[40] = test system: UACC-62 melanoma
[41] = test system: MALME-3M melanoma
[42] = test system: A549 NSCLC
[43] = test system: M14 melanoma
[44] = test system: SNB-19 CNS
[45] = test system: MDA-MB-435
[46] = test system: SK-MEL-2 melanoma
[47] = test system: PC-3 prostate
[48] = test system: SF-539 CNS
[49] = test system: T-47D breast
[50] = test system: SF-295 CNS
[51] = test system: 786-0 renal
[52] = test system: EKVX NSCLC
[53] = test system: HS 578T breast
[54] = test system: ACHN renal
[55] = test system: RPMI-8226 leukemia
[56] = test system: HT29 colon

CCc1nc2ccc(Cc3ccc(C(=O)NO)cc3)cc2c(=O)n1CCc1ccccc1
GI50 [1]: 740 nM | TGI [1]: 2970 nM

O=C(N/N=C/c1ccc(O)cc1O)c1ccc(Nc2ccnc(C(F)(F)F)c2)cc1
GI50 [1]: 15200 nM | TGI [1]: > 100000 nM

c1cncc(CNc2ccccc2-c2nnc(Nc3ccc4c(c3)OCCO4)o2)c1
GI50 [1]: 218 nM | TGI [1]: 821 nM

Cc1cc2c(C(N)=O)cccc2n1-c1nc2c(c(NCc3ccccc3)n1)CCCN2
GI50 [1]: 223 nM | TGI [1]: 477 nM

N#CSCC1CC(O)(c2ccccc2)C(c2ccccc2)C(c2ccc(F)cc2)O1 (stereo not drawn)
GI50 [1]: 3510 nM | TGI [1]: 13100 nM

O=C(CNC(=O)c1cccc2ccccc12)Nc1ccccc1Oc1ccccc1
GI50 [1]: 325 nM | TGI [1]: 5900 nM

COc1ccc(/C=C(\C#N)c2cc(OC)c3c(c2)OCO3)cc1
GI50 [1]: 17.3 nM | TGI [1]: 150 nM

COc1ccc(C(=O)c2cc(OC)c(OC)c(OC)c2)cc1O
GI50 [1]: 239 nM | TGI [1]: 779 nM

Cn1c2ccccc2c2nnc(N/N=C/c3ccccn3)nc21
GI50 [1]: 293 nM

CSc1ccc(/C(=N/N=C(N)N)c2ccc(F)cc2)cc1
GI50 [1]: 398 nM | TGI [1]: 2130 nM

CCC(C)/C=C(C)/C=C/C(=O)c1c(O)c(-c2ccc(O)cc2)c[nH]c1=O (stereo not drawn)
GI50 [1]: 1870 nM | TGI [1]: 7760 nM

COc1ccc(C2=C(c3cn(C)c4ccccc34)C(=O)NC2=O)cc1OC
GI50 [1]: 5860 nM | TGI [1]: > 25000 nM

Cc1ccc(C(=O)N/N=C/c2cccc(Oc3ccccc3)c2)cn1
GI50 [1]: 4430 nM | TGI [1]: > 34900 nM

COC[C@H]1OC(=O)c2coc3c2[C@@]1(C)C1=C(C3=O)[C@@H]2CCC(=O)[C@@]2(C)C[C@H]1OC(C)=O
GI50 [1]: 421 nM | TGI [1]: 4620 nM

Cc1nc(Nc2ccc(F)c(Cl)c2)sc1C(=O)O
GI50 [1]: 1200 nM | TGI [1]: 3790 nM

CCS(=O)(=O)c1ccc(OC)c(Nc2nccc(N(C)c3ccc4c(C)[nH]nc4c3)n2)c1
GI50 [1]: 3480 nM | TGI [1]: 9320 nM

CN(C)C(=O)c1cc(-c2ccc3ncnc(N4CCc5cc(F)c(Cl)cc54)c3c2)cnc1N
GI50 [2]: 281 nM | TGI [2]: > 100000 nM | GI50 [3]: 137 nM | GI50 [4]: 214 nM | TGI [4]: 1510 nM | GI50 [5]: 131 nM | TGI [5]: 3370 nM | GI50 [6]: 165 nM | TGI [6]: 1030 nM | GI50 [7]: 243 nM | TGI [7]: 2070 nM | GI50 [8]: 316 nM | TGI [8]: 1750 nM | GI50 [9]: 216 nM | TGI [9]: 7500 nM | GI50 [10]: 195 nM | TGI [10]: 5180 nM | GI50 [11]: 30.1 nM | TGI [11]: 161 nM | GI50 [1]: 43 nM | TGI [1]: 178 nM | GI50 [12]: 225 nM | TGI [12]: 540 nM | GI50 [13]: 170 nM | TGI [13]: 1170 nM | GI50 [14]: 125 nM | TGI [14]: 276 nM | GI50 [15]: 63.8 nM | TGI [15]: 3950 nM | GI50 [16]: 127 nM | TGI [16]: 1420 nM | GI50 [17]: 154 nM | TGI [17]: 2310 nM | GI50 [18]: 76.5 nM | TGI [18]: 815 nM | GI50 [19]: 111 nM | TGI [19]: 296 nM | GI50 [20]: 168 nM | TGI [20]: 2450 nM | GI50 [21]: 128 nM | TGI [21]: 743 nM | GI50 [22]: 137 nM | TGI [22]: 1210 nM | GI50 [23]: 203 nM | TGI [23]: 1520 nM | GI50 [24]: 57.5 nM | TGI [24]: 682 nM | GI50 [25]: 32.2 nM | TGI [25]: 1310 nM | GI50 [26]: 200 nM | TGI [26]: 2240 nM | GI50 [27]: 37.9 nM | TGI [27]: 317 nM | GI50 [28]: 144 nM | TGI [28]: 673 nM | GI50 [29]: 198 nM | TGI [29]: 3920 nM | GI50 [30]: 32.1 nM | TGI [30]: 1860 nM | GI50 [31]: 229 nM | TGI [31]: 11300 nM | GI50 [32]: 69.8 nM | TGI [32]: 3020 nM | GI50 [33]: 127 nM | TGI [33]: 459 nM | GI50 [34]: 95 nM | TGI [34]: > 100000 nM | GI50 [35]: 23 nM | TGI [35]: 649 nM | GI50 [36]: 194 nM | TGI [36]: 2860 nM | GI50 [37]: 161 nM | TGI [37]: > 37300 nM | GI50 [38]: 149 nM | TGI [38]: 4270 nM | GI50 [39]: 74.7 nM | TGI [39]: 437 nM | GI50 [40]: 109 nM | TGI [40]: 440 nM | GI50 [41]: 45.5 nM | TGI [41]: 366 nM | GI50 [42]: 113 nM | TGI [42]: 1490 nM | GI50 [43]: 277 nM | GI50 [44]: 276 nM | TGI [44]: 3440 nM | GI50 [45]: 187 nM | TGI [45]: 3180 nM | GI50 [46]: 191 nM | TGI [46]: 474 nM | GI50 [47]: 104 nM | TGI [47]: 7190 nM | GI50 [48]: 135 nM | TGI [48]: 700 nM | GI50 [49]: 32.3 nM | TGI [49]: 1430 nM | GI50 [50]: 244 nM | TGI [50]: 1250 nM | GI50 [51]: 129 nM | TGI [51]: 1430 nM | GI50 [52]: 131 nM | TGI [52]: 741 nM | GI50 [53]: 30.9 nM | TGI [53]: 437 nM | GI50 [54]: 217 nM | TGI [54]: 3220 nM | GI50 [55]: 57.2 nM | TGI [55]: 419 nM | GI50 [56]: 141 nM | TGI [56]: 1580 nM

O=C1C(Cl)=C(N2CCOCC2)C(=O)c2ccccc21
GI50 [1]: 1440 nM | TGI [1]: 2940 nM
